In brackets after ≈: the same amount, converted by molar mass.
Test system: not listed separately
Assay: Selectivity index, ratio of CC50 for african green monkey Vero cells to MIC for multidrug-resistant Mycobacterium tuberculosis
Type: toxicity, cell-based
Details: read-out: Selectivity Index
`O=[N+]([O-])c1ccc(/C=N\NC(=S)N(Cc2ccccc2)Cc2ccccc2)o1` showed a selectivity ratio of 1320.

Test system: Mycobacterium tuberculosis
Assay: Ratio of ethambutol MIC to compound MIC for multidrug-resistant Mycobacterium tuberculosis
Type: functional
Details: not given
With `O=[N+]([O-])c1ccc(/C=N\NC(=S)N(Cc2ccccc2)Cc2ccccc2)o1` the Ratio was 314.

Test system: Mycobacterium tuberculosis
Assay: Ratio of rifampicin MIC to compound MIC for multidrug-resistant Mycobacterium tuberculosis
Type: functional
Details: not given
`O=[N+]([O-])c1ccc(/C=N\NC(=S)N(Cc2ccccc2)Cc2ccccc2)o1` showed a Ratio of 31.

Test system: Mycobacterium tuberculosis
Assay: Ratio of ofloxacin MIC to compound MIC for multidrug-resistant Mycobacterium tuberculosis
Type: functional
Details: not given
With `O=[N+]([O-])c1ccc(/C=N\NC(=S)N(Cc2ccccc2)Cc2ccccc2)o1` the Ratio was 288.

Test system: Mycobacterium tuberculosis
Assay: Ratio of isoniazid MIC to compound MIC for multidrug-resistant Mycobacterium tuberculosis
Type: functional
Details: not given
Work on `O=[N+]([O-])c1ccc(/C=N\NC(=S)N(Cc2ccccc2)Cc2ccccc2)o1` yielded a Ratio of 379.

Test system: Mycobacterium tuberculosis
Assay: Antitubercular activity against multidrug-resistant Mycobacterium tuberculosis by NCCLS agar dilution method
Type: functional
Details: not given
`S=C(NN=C(c1ccccc1)c1ccccc1)N(Cc1ccccc1)Cc1ccccc1` gave an MIC of 1.79 µM (≈ 0.78 µg/mL). Molecule `O=[N+]([O-])c1ccc(/C=N\NC(=S)N(Cc2ccccc2)Cc2ccccc2)cc1` has an MIC of 0.98 µM (≈ 0.396 µg/mL). Molecule `C=CCN(CC=C)C(=S)N/N=C\c1ccc(Cl)cc1` has an MIC of 2.65 µM (≈ 0.779 µg/mL). Molecule `S=C(N/N=C\c1ccc(Cl)cc1)N(Cc1ccccc1)Cc1ccccc1` has an MIC of 1.98 µM (≈ 0.78 µg/mL). Work on `C=CCN(CC=C)C(=S)N/N=C\c1ccccc1C` yielded an MIC of 5.7 µM (≈ 1.56 µg/mL). In the case of `Cc1ccccc1/C=N\NC(=S)N(Cc1ccccc1)Cc1ccccc1`, the MIC is reported as 4.71 µM (≈ 1.76 µg/mL). Molecule `Oc1ccccc1/C=N\NC(=S)N(Cc1ccccc1)Cc1ccccc1` has an MIC of 4.16 µM (≈ 1.56 µg/mL). Work on `C=CCN(CC=C)C(=S)N/N=C\c1ccc([N+](=O)[O-])o1` yielded an MIC of 0.67 µM (≈ 0.197 µg/mL). With `O=[N+]([O-])c1ccc(/C=N\NC(=S)N(Cc2ccccc2)Cc2ccccc2)o1` the MIC was 0.12 µM (≈ 0.0473 µg/mL). `C=CCN(CC=C)C(=S)N/N=C(/C)c1ccccc1` gave an MIC of 11.4 µM (≈ 3.13 µg/mL). With `C/C(=N/NC(=S)N(Cc1ccccc1)Cc1ccccc1)c1ccccc1` the MIC was 4.17 µM (≈ 1.56 µg/mL). Molecule `C=CCN(CC=C)C(=S)N/N=C(/C)c1ccccc1O` has an MIC of 10.8 µM (≈ 3.13 µg/mL). Molecule `C/C(=N/NC(=S)N(Cc1ccccc1)Cc1ccccc1)c1ccccc1O` has an MIC of 8.03 µM (≈ 3.13 µg/mL). For `C=CCN(CC=C)C(=S)N/N=C(/C)c1ccc(O)cc1`, the MIC was 10.8 µM (≈ 3.13 µg/mL). Work on `C/C(=N/NC(=S)N(Cc1ccccc1)Cc1ccccc1)c1ccc(O)cc1` yielded an MIC of 8.03 µM (≈ 3.13 µg/mL). `C/C(=N/NC(=S)N(Cc1ccccc1)Cc1ccccc1)c1ccc(N)cc1` gave an MIC of 8.04 µM (≈ 3.12 µg/mL). In the case of `C=CCN(CC=C)C(=S)N/N=C(/C)c1ccc([N+](=O)[O-])cc1`, the MIC is reported as 9.83 µM (≈ 3.13 µg/mL). Work on `C/C(=N/NC(=S)N(Cc1ccccc1)Cc1ccccc1)c1ccc([N+](=O)[O-])cc1` yielded an MIC of 1.86 µM (≈ 0.778 µg/mL). With `C=CCN(CC=C)C(=S)N/N=C(/C)c1ccc(F)cc1` the MIC was 5.35 µM (≈ 1.56 µg/mL). For `C/C(=N/NC(=S)N(Cc1ccccc1)Cc1ccccc1)c1ccc(F)cc1`, the MIC was 3.98 µM (≈ 1.56 µg/mL). For `C=CCN(CC=C)C(=S)NN=C(c1ccccc1)c1ccccc1`, the MIC was 2.32 µM (≈ 0.778 µg/mL). For `S=C(N/N=C\c1ccccc1)N(Cc1ccccc1)Cc1ccccc1`, the MIC was 8.71 µM (≈ 3.13 µg/mL). In the case of `C=CCN(CC=C)C(=S)N/N=C\c1ccccc1[N+](=O)[O-]`, the MIC is reported as 2.56 µM (≈ 0.779 µg/mL). Molecule `O=[N+]([O-])c1ccccc1/C=N\NC(=S)N(Cc1ccccc1)Cc1ccccc1` has an MIC of 0.98 µM (≈ 0.396 µg/mL). Work on `C=CCN(CC=C)C(=S)N/N=C\c1ccc([N+](=O)[O-])cc1` yielded an MIC of 1.31 µM (≈ 0.399 µg/mL). `CC[C@@H](CO)NCCN[C@@H](CC)CO` [ETHAMBUTOL] gave an MIC of 37.7 µM (≈ 7.7 µg/mL). With `NNC(=O)c1ccncc1` [ISONIAZID] the MIC was 45.6 µM (≈ 6.25 µg/mL). Molecule `CO[C@H]1/C=C/O[C@@]2(C)Oc3c(C)c(O)c4c(O)c(c(/C=N/N5CCN(C)CC5)c(O)c4c3C2=O)NC(=O)/C(C)=C\C=C\[C@H](C)[C@H](O)[C@@H](C)[C@@H](O)[C@@H](C)[C@H](OC(C)=O)[C@@H]1C` [RIFAMPIN] has an MIC of 3.79 µM (≈ 3.12 µg/mL).

Source: ChEMBL document CHEMBL3044985, “Novel antitubercular diallyl/dibenzylthiosemicarbazones endowed with high activity toward multi-drug-resistant tuberculosis” (Med Chem Res, 2012)
